Experimental data published in patent US20120230951A1 (priority 2011, published 2012).
pIC50: −log10 of the molar value.

Assays:
[1] = tested on: HCV GT1b replicon (2209-23 cell line, GT-1b Con1 subgenomic replicon in Huh-7); test: HCV GT1b replicon luciferase reporter assay; format: cell-based; conditions: Hepatitis C virus, Huh-7, 2209-23 cells (GT-1b Con1), Renilla luciferase read 72 hours after addition of compounds, read-out: GT-1b (IC50)
Text: Determination of compounds HCV GT1b inhibitory replicon activity using the replicon luciferase reporter assay
The 2209-23 cell line was developed at Roche by stable transfection of the hepatoma cell line Huh-7 with a GT-1b Con1 subgenomic bicistronic replicon as previously described. Subgenomic replicon cell line was established in cured Huh7 cells, obtained from R. Bartenschlager (J. Virol. 2003 March; 77 (5):3007-19) The GT-1a H77 subgenomic replicon vector pRLuc H771b 75 S/I, was created by replacing the non structural region of the GT-1b Con1 subgenomic replicon by the one of the H77 strain, except for the first 75 amino acids of the NS3 protein that are from GT-1b Con1 strain. (J. Virol. 2001 77:5352-59) The GT-1a pRLuc H771b 75 S/I subgenomic replicon cell line was established in cured Huh7 cells, obtained from R. Bartenschlager. (J. Virol. 2003 March; 77 (5):3007-19)
All the subgenomic replicon cell lines were cultured in Dulbecco's Modified Eagle Medium (DMEM-Glutamax™-I; Invitrogen Cat #10569-010). The medium was supplemented with 10% Fetal Bovine Serum (Invitrogen Cat #10082-147), 1% penicillin/streptomycin (Mediatech Cat #30-002-CI) and 500 μg/ml of G418 (Mediatech Cat #30-234-CI). Cells were maintained at 37° C. in a humidified 5% CO2 atmosphere.
2209-23 cells were plated at a cell density of 5000 cells per well in 96 well plates (Becton Dickinson, Cat #35 3296). Cells were plated in 90 μl of Dulbecco's Modified Eagle Medium (DMEM-Glutamax™-I), (Invitrogen Cat #10569-010) medium was supplemented with 5% Fetal Bovine Serum (Invitrogen Cat #10082-147), 1% penicillin/streptomycin (Mediatech Cat #30-002-CI). The pRluc H771b 75 S/I cells were plated in 96-well plate at 3000 cells/well in DMEM-Glutamax™-I containing 5% FBS and 1% penicillin/streptomycin in 90 μl final volume. Cells were allowed to equilibrate for 24 hours at 37° C. and 5% CO2 at which time compounds were added. Compounds (or medium as a control) were added 24 hours post-plating in 3 fold dilutions at a final DMSO concentration of 1% in 10 ul volume. Renilla luciferase reporter signal was read 72 hours after addition of compounds using the Renilla Luciferase Assay System (Promega, cat #E2820). EC50 values were defined as the compound concentration at which a 50% reduction in the levels of renilla luciferase reporter was observed as compared to control samples in the absence of compound and was determined by non-linear fitting of compound dose-response data. The EC50 was approximated if maximum percentage inhibition was less than 90% and more than 70%.

[2] = tested on: GT-1a pRLuc H771b 75 S/I subgenomic replicon cell line; test: HCV GT-1a replicon luciferase reporter assay; format: cell-based; conditions: Hepatitis C virus, GT1A, 72 h, read-out: GT-1a (IC50) (nM)
Procedure, shortened: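 Huh-7-derived subgenomic replicon cells (GT-1b Con1 2209-23, 5000/well; GT-1a H77 chimera with Con1 NS3 first 75 aa, 3000/well) in 5% FBS DMEM; compounds added 24 h post-plating, 3-fold dilutions, 1% DMSO. Renilla luciferase read after 72 h; EC50 is 50% signal reduction versus untreated, non-linear fit.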

**Q.** What does the source list for COC(=O)N[C@H]1CC(=O)c2cccc3c2N(C1=O)[C@H](c1ncc(-c2ccc(-c4ccc(-c5cnc([C@@H]6CCCN6C(=O)[C@@H](NC(=O)OC)C(C)C)[nH]5)cc4)cc2)[nH]1)C3 [Compound I-28, {(2S,5S)-2-[5-(4′-{2-[(S)-1-((S)-2-Methoxycarbonylamino-3-methyl-butyryl)-pyrrolidin-2-yl]-3H-imidazol-4-yl}-biphenyl-4-yl)-1H-imidazol-2-yl]-4,7-dioxo-1,2,4,5,6,7-hexahydro-azepino[3,2,1-hi]indol-5-yl}-carbamic acid methyl ester]?
**A.** pIC50 [1]: 11.00; IC50 [2]: 1.81 nM

**Q.** COC(=O)NC(C(=O)N1CCCC1c1ncc(-c2ccc(-c3ccc(-c4cnc([C@@H]5Cc6cc(Br)cc7c6N5C(=O)[C@@H](NC(=O)OC)CC7)[nH]4)cc3)cc2)[nH]1)C(C)C (stereo in doubt) [Compound I-25, {(2S,5S)-9-Bromo-2-[5-(4′-{2-[(R)-1-((R)-2-methoxycarbonylamino-3-methyl-butyryl)-pyrrolidin-2-yl]-3H-imidazol-4-yl}-biphenyl-4-yl)-1H-imidazol-2-yl]-4-oxo-1,2,4,5,6,7-hexahydro-azepino[3,2,1-hi]indol-5-yl}-carbamic acid methyl ester] was tested. Which pIC50 [1] did it give?
**A.** 8.92

**Q.** And the IC50 [2]?
**A.** 31.2 nM

**Q.** Which results are given for COC(=O)N[C@H]1CC(O)c2cccc3c2N(C1=O)[C@H](c1ncc(-c2ccc(-c4ccc(-c5cnc([C@@H]6CCCN6C(=O)[C@@H](NC(=O)OC)C(C)C)[nH]5)cc4)cc2)[nH]1)C3 (stereo partly drawn) [Compound I-29, {(2S,5S)-7-Hydroxy-2-[5-(4′-{2-[(S)-1-((S)-2-methoxycarbonylamino-3-methyl-butyryl)-pyrrolidin-2-yl]-3H-imidazol-4-yl}-biphenyl-4-yl)-1H-imidazol-2-yl]-4-oxo-1,2,4,5,6,7-hexahydro-azepino[3,2,1-hi]indol-5-yl}-carbamic acid methyl ester]?
**A.** pIC50 [1]: 11.00; IC50 [2]: 1.02 nM

**Q.** With COC(=O)N[C@H]1CCc2cccc3c2N(C1=O)[C@H](c1nc2ccc(-c4ccc(-c5cnc([C@@H]6CCCN6C(=O)[C@@H](NC(=O)OC)C(C)C)[nH]5)cc4)cc2[nH]1)C3 [Compound I-10, {(2S,5S)-2-[6-(4-{2-[(S)-1-((S)-2-Methoxycarbonylamino-3-methyl-butyryl)-pyrrolidin-2-yl]-3H-imidazol-4-yl}-phenyl)-1H-benzoimidazol-2-yl]-4-oxo-1,2,4,5,6,7-hexahydro-azepino[3,2,1-hi]indol-5-yl}-carbamic acid methyl ester] as the compound, how does the pIC50 [1] read?
**A.** 10.00

**Q.** What about the IC50 [2] of the same compound?
**A.** 43.3 nM

**Q.** How did the pIC50 [1] turn out when COC(=O)N[C@H]1CCc2cccc3c2N(C1=O)[C@H](c1ncc(-c2ccc(-c4cnc5cc(-c6cnc([C@@H]7CCCN7C(=O)[C@@H](NC(=O)OC)C(C)C)[nH]6)ccc5n4)cc2)[nH]1)C3 [Compound I-52, ((2S,5S)-2-{5-[4-(6-{2-[(S)-1-((S)-2-Methoxycarbonylamino-3-methyl-butyryl)-pyrrolidin-2-yl]-3H-imidazol-4-yl}-quinoxalin-2-yl)-phenyl]-1H-imidazol-2-yl}-4-oxo-1,2,4,5,6,7-hexahydro-azepino[3,2,1-hi]indol-5-yl)-carbamicacid methyl ester] was run?
**A.** 10.52

**Q.** What about the IC50 [2] of the same compound?
**A.** 0.41 nM

**Q.** What does the source list for COC(=O)N[C@H]1CCc2cccc3c2N(C1=O)[C@H](c1ncc(-c2ccc(-c4ccc(-c5cnc(C6CC7(CCOCC7)CN6C(=O)[C@@H](NC(=O)OC)C(C)C)[nH]5)cc4)cc2)[nH]1)C3 (stereo partly drawn) [Compound I-9, {(2S,5S)-2-[5-(4′-{2-[2-((S)-2-Methoxycarbonylamino-3-methyl-butyryl)-8-oxa-2-aza-spiro[4.5]dec-3-yl]-3H-imidazol-4-yl}-biphenyl-4-yl)-1H-imidazol-2-yl]-4-oxo-1,2,4,5,6,7-hexahydro-azepino[3,2,1-hi]indol-5-yl}-carbamic acid methyl ester]?
**A.** pIC50 [1]: 10.52; IC50 [2]: 3.36 nM

**Q.** Which results are given for COC(=O)N[C@@H](CCS(C)(=O)=O)C(=O)N1CCC[C@H]1c1ncc(-c2ccc(-c3ccc(-c4cnc([C@@H]5Cc6cccc7c6N5C(=O)[C@@H](NC(=O)OC)CC7)[nH]4)cc3)cc2)[nH]1 [Compound I-51, {(2S,5S)-2-[5-(4-{2-[(S)-1-((S)-4-Methanesulfonyl-2-methoxycarbonylamino-butyl)-pyrolidin-2-yl]-3H-imidazol-4-yl}-biphenyl-4-yl)-1H-imidazol-2-yl]-4-oxo-1,2,4,5,6,7-hexahydro-azepino[3,2,1-hi]indol-5-yl}-carbamic acid methyl ester]?
**A.** pIC50 [1]: 10.52; IC50 [2]: 16.6 nM

**Q.** Which results are given for COC(=O)N[C@H]1CCc2cccc3c2N(C1=O)[C@H](c1nc2ccc(-c4ccc5nc(-c6ccc7nc([C@@H]8CCCN8C(=O)[C@@H](NC(=O)OC)C(C)C)[nH]c7c6)cnc5c4)cc2[nH]1)C3 [Compound I-6]?
**A.** pIC50 [1]: 9.70; IC50 [2]: 17.5 nM

**Q.** COC(=O)N[C@H]1CCc2cccc3c2N(C1=O)[C@H](c1ncc(-c2ccc(-c4ccc5cc(-c6cnc([C@@H]7CCCN7C(=O)[C@@H](NC(=O)OC)C(C)C)[nH]6)ccc5c4)cc2)[nH]1)C3 [Compound I-31, {(2S,5S)-2-[5-(4-(6-{2-[(S)-1-((S)-2-Methoxycarbonylamino-3-methyl-butyryl)-pyrrolidin-2-yl]-3H-imidazol-4-yl}-naphthalen-2-yl)-phenyl)-1H-imidazol-2-yl]-4-oxo-1,2,4,5,6,7-hexahydro-azepino[3,2,1-hi]indol-5-yl}-carbamic acid methyl ester] was tested. Which pIC50 [1] did it give?
**A.** 9.39

**Q.** And the IC50 [2]?
**A.** 1.13 nM

**Q.** With COC(=O)N[C@H]1CCc2cccc3c2N(C1=O)[C@H](c1ncc(-c2ccc4nc(-c5ccc(-c6cnc([C@@H]7CCCN7C(=O)[C@@H](NC(=O)OC)C(C)C)[nH]6)cc5)cnc4c2)[nH]1)C3 [Compound I-59, ((2S,5S)-2-{5-[2-(4-{2-[(S)-1-((S)-2-Methoxycarbonylamino-3-methyl-butyryl)-pyrrolidin-2-yl]-3H-imidazol-4-yl}-phenyl)-quinoxalin-6-yl]-1H-imidazol-2-yl}-4-oxo-1,2,4,5,6,7-hexahydro-azepino[3,2,1-hi]indol-5-yl)-carbamic acid methyl ester] as the compound, how does the pIC50 [1] read?
**A.** 10.15

**Q.** What about the IC50 [2] of the same compound?
**A.** 0.709 nM

**Q.** What does the source list for COC(=O)N[C@H]1CCc2cccc3c2N(C1=O)[C@H](c1ncc(-c2ccc(-c4ccc(-c5cnc([C@@H]6CCCN6C(=O)[C@@H](NC(=O)OC)C(C)C)[nH]5)cc4)c(F)c2)[nH]1)C3 [Compound I-35, {(2S,5S)-2-[5-(2-Fluoro-4′-{2-[(S)-1-((S)-2-methoxycarbonylamino-3-methyl-butyryl)-pyrrolidin-2-yl]-1H-imidazol-4-yl}-biphenyl-4-yl)-1H-imidazol-2-yl]-4-oxo-1,2,4,5,6,7-hexahydro-azepino[3,2,1-hi]indol-5-yl}-carbamic acid methyl ester]?
**A.** pIC50 [1]: 11.00; IC50 [2]: 5.92 nM

**Q.** How did the pIC50 [1] turn out when COC(=O)N[C@H]1CCc2cccc3c2N(C1=O)[C@H](c1nc2ccc(-c4ccc(-c5ccc6nc([C@@H]7CCCN7C(=O)[C@@H](NC(=O)OC)C(C)C)[nH]c6c5)cc4)cc2[nH]1)C3 [Compound I-5, {(2S,5S)-2-[6-(4-{2-[(S)-1-((S)-2-Methoxycarbonylamino-3-methyl-butyryl)-pyrrolidin-2-yl]-3H-benzoimidazol-5-yl}-phenyl)-1H-benzoimidazol-2-yl]-4-oxo-1,2,4,5,6,7-hexahydro-azepino[3,2,1-hi]indol-5-yl}-carbamic acid methyl ester] was run?
**A.** 10.03

**Q.** And the IC50 [2]?
**A.** 49.8 nM

**Q.** With COC(=O)N[C@H]1CCc2cccc3c2N(C1=O)[C@H](c1ncc(-c2ccc(-c4cnc5cc(-c6cnc([C@@H]7CCCN7C(=O)[C@H](NC(=O)OC)c7ccccc7)[nH]6)ccc5n4)cc2)[nH]1)C3 [Compound I-55, ((2S,5S)-2-{5-[4-(6-{2-[(S)-1-((R)-2-Methoxycarbonylamino-2-phenyl-acetyl)-pyrrolidin-2-yl]-3H-imidazol-4-yl}-quinoxalin-2-yl)-phenyl]-1H-imidazol-2-yl}-4-oxo-1,2,4,5,6,7-hexahydro-azepino[3,2,1-hi]indol-5-yl)-carbamic acid methyl ester] as the compound, how does the pIC50 [1] read?
**A.** 11.00

**Q.** What about the IC50 [2] of the same compound?
**A.** 0.79 nM
